Measured values published in PubChem BioAssay AID248 (DTP/NCI, 2004).
Where “and” joins values, the source holds several entries; their conditions need not be identical. Equal values may be shown once. Inconclusive results and toxic doses are left out. No stated cut-off is given here; in the data, active means T/C of 150% or more; inactive means T/C below 125%. Peptide text beside a SMILES is read from it. * marks the point of attachment. Cbz = O=C(OCc1ccccc1)*

Tested on: L1210 leukemia ip in BDF1 mice, survival T/C
Assay: NCI In Vivo Anticancer Drug Screen. Data for tumor model L1210 Leukemia (intraperitoneal) in B6D2F1 (BDF1) mice
Settings: endpoint: mean survival time, higher = longer survival
How it was run: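 Value reflects the ratio of survival in compound-treated mice to survival in vehicle-treated controls, with both groups carrying the same transplanted tumor.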

[1] = dose: 50.0 mg/kg/injection, schedule: Q01DX009 (ip), vehicle: Klucel (hydroxypropylcellulose) (HPC)
[2] = dose: 100.0 mg/kg/injection, schedule: Q01DX009 (ip), vehicle: Klucel (hydroxypropylcellulose) (HPC)
[3] = dose: 200.0 mg/kg/injection, schedule: Q01DX009 (ip), vehicle: Klucel (hydroxypropylcellulose) (HPC)
[4] = dose: 100.0 mg/kg/injection, schedule: Q01DX001 (ip), vehicle: carboxymethylcellulose (CMC)
[5] = dose: 200.0 mg/kg/injection, schedule: Q01DX001 (ip), vehicle: carboxymethylcellulose (CMC)
[6] = dose: 400.0 mg/kg/injection, schedule: Q01DX001 (ip), vehicle: carboxymethylcellulose (CMC)
[7] = dose: 100.0 mg/kg/injection, schedule: Q04DX002 (ip), vehicle: saline
[8] = dose: 200.0 mg/kg/injection, schedule: Q04DX002 (ip), vehicle: saline
[9] = dose: 50.0 mg/kg/injection, schedule: Q01DX001 (ip), vehicle: carboxymethylcellulose (CMC)

Measured: T/C

CCCCOP(=O)(OCCCC)C(C)c1ccccc1 (stereo not given)
inactive: dose: 12.5 mg/kg/injection, schedule: Q04DX003 (ip), vehicle: saline with Tween-80 104 % of control | dose: 25.0 mg/kg/injection, schedule: Q01DX009 (ip), vehicle: saline with Tween-80 95 % of control and 100 % of control | dose: 25.0 mg/kg/injection, schedule: Q04DX002 (ip), vehicle: saline with Tween-80 95 % of control and 87 % of control | dose: 25.0 mg/kg/injection, schedule: Q04DX003 (ip), vehicle: saline with Tween-80 98 % of control | dose: 50.0 mg/kg/injection, schedule: Q01DX001 (ip), vehicle: saline with Tween-80 107 % of control | dose: 50.0 mg/kg/injection, schedule: Q01DX009 (ip), vehicle: saline with Tween-80 99 % of control and 104 % of control | dose: 50.0 mg/kg/injection, schedule: Q04DX002 (ip), vehicle: saline with Tween-80 103 % of control and 90 % of control | dose: 50.0 mg/kg/injection, schedule: Q04DX003 (ip), vehicle: saline with Tween-80 93 % of control and 106 % of control | dose: 100.0 mg/kg/injection, schedule: Q01DX001 (ip), vehicle: saline with Tween-80 107 % of control | dose: 100.0 mg/kg/injection, schedule: Q04DX002 (ip), vehicle: saline with Tween-80 94 % of control and 96 % of control and 108 % of control | dose: 200.0 mg/kg/injection, schedule: Q01DX001 (ip), vehicle: saline with Tween-80 94 % of control

CC(C)CC(N)C(N)=O (stereo not given)
inactive: dose: 12.5 mg/kg/injection, schedule: Q04DX002 (ip), vehicle: saline 107 % of control | dose: 25.0 mg/kg/injection, schedule: Q04DX002 (ip), vehicle: saline 100 % of control | dose: 50.0 mg/kg/injection, schedule: Q04DX002 (ip), vehicle: saline 107 % of control

CN1CCC=C(COC(=O)C(C)(C)C)C1
inactive: dose: 75.0 mg/kg/injection, schedule: Q01DX001 (ip), vehicle: carboxymethylcellulose (CMC) 92 % of control | dose: 150.0 mg/kg/injection, schedule: Q01DX001 (ip), vehicle: carboxymethylcellulose (CMC) 87 % of control | dose: 300.0 mg/kg/injection, schedule: Q01DX001 (ip), vehicle: carboxymethylcellulose (CMC) 95 % of control

Cc1cccc2c(C)c3cccc[n+]3cc12
inactive: dose: 2.0 mg/kg/injection, schedule: Q01DX Z (ip), vehicle: carboxymethylcellulose (CMC) 113 % of control | dose: 4.0 mg/kg/injection, schedule: Q01DX Z (ip), vehicle: carboxymethylcellulose (CMC) 110 % of control | dose: 8.0 mg/kg/injection, schedule: Q01DX Z (ip), vehicle: carboxymethylcellulose (CMC) 113 % of control and 123 % of control | dose: 16.0 mg/kg/injection, schedule: Q01DX Z (ip), vehicle: carboxymethylcellulose (CMC) 115 % of control and 119 % of control

COc1cc(/C=C\[N+](=O)[O-])ccc1OCc1ccccc1
inactive: [1] 94 % of control | dose: 50.0 mg/kg/injection, schedule: Q04DX003 (ip), vehicle: Klucel (hydroxypropylcellulose) (HPC) 98 % of control | [2] 103 % of control | dose: 100.0 mg/kg/injection, schedule: Q04DX003 (ip), vehicle: Klucel (hydroxypropylcellulose) (HPC) 104 % of control | [3] 95 % of control | dose: 200.0 mg/kg/injection, schedule: Q04DX003 (ip), vehicle: Klucel (hydroxypropylcellulose) (HPC) 91 % of control

Cc1cc(=O)[nH]c(N=Nc2c(O)[nH]c3ccccc23)n1
inactive: [4] 98 % of control | [5] 93 % of control | [6] 88 % of control

COC(=O)CNC(=O)C(CC(C)C)NC(=O)C(CC(C)C)NC(=O)C(C)NC(=O)OCc1ccccc1 (stereo not given) (Cbz-ALLG-OMe; configuration not given here)
inactive: dose: 100.0 mg/kg/injection, schedule: Q04DX003 (ip), vehicle: saline 94 % of control | dose: 200.0 mg/kg/injection, schedule: Q04DX003 (ip), vehicle: saline 98 % of control | dose: 400.0 mg/kg/injection, schedule: Q04DX003 (ip), vehicle: saline 98 % of control

CC1(C)C2CCC1(C)C(C(=O)C(F)(F)F)C2=O.CC1(C)C2CCC1(C)C(C(=O)C(F)(F)F)C2=O.[Co] (stereo not given)
inactive: [7] 110 % of control | [8] 94 % of control

Cc1cc(C)c(SC2c3ccccc3-c3ccccc32)c(C)c1
inactive: dose: 75.0 mg/kg/injection, schedule: Q01DX009 (ip), vehicle: saline with Tween-80 95 % of control | dose: 150.0 mg/kg/injection, schedule: Q01DX009 (ip), vehicle: saline with Tween-80 102 % of control | dose: 300.0 mg/kg/injection, schedule: Q01DX009 (ip), vehicle: saline with Tween-80 96 % of control

Cc1c(Cl)cccc1NC(=O)c1ccc([N+](=O)[O-])cc1
inactive: dose: 100.0 mg/kg/injection, schedule: Q01DX009 (ip), vehicle: saline with Tween-80 91 % of control | dose: 200.0 mg/kg/injection, schedule: Q01DX009 (ip), vehicle: saline with Tween-80 89 % of control | dose: 400.0 mg/kg/injection, schedule: Q01DX009 (ip), vehicle: saline with Tween-80 89 % of control

CC(C)=CC[Se]c1ncnc2c1ncn2C1OC(CO)C(O)C1O (stereo not given)
inactive: dose: 12.5 mg/kg/injection, schedule: Q01DX005 (ip), vehicle: saline 91 % of control | dose: 25.0 mg/kg/injection, schedule: Q01DX005 (ip), vehicle: saline 91 % of control | dose: 50.0 mg/kg/injection, schedule: Q01DX005 (ip), vehicle: saline 87 % of control

CC(=C(C#N)C#N)c1csc2ccccc12
inactive: [4] 97 % of control | [5] 87 % of control | [6] 92 % of control

COc1cc(N(CCCl)CCCl)ccc1C=Nc1ccccc1-n1ccnc1
inactive: dose: 68.8 mg/kg/injection, schedule: Q04DX002 (ip), vehicle: Klucel (hydroxypropylcellulose) (HPC) 102 % of control | dose: 137.5 mg/kg/injection, schedule: Q04DX002 (ip), vehicle: Klucel (hydroxypropylcellulose) (HPC) 91 % of control | dose: 275.0 mg/kg/injection, schedule: Q04DX002 (ip), vehicle: Klucel (hydroxypropylcellulose) (HPC) 102 % of control

Nc1ccc2c(c1)S(=O)(=O)c1cc(N)c(S(=O)(=O)O)cc1-2
inactive: dose: 100.0 mg/kg/injection, schedule: Q04DX002 (ip), vehicle: Klucel (hydroxypropylcellulose) (HPC) 115 % of control | dose: 200.0 mg/kg/injection, schedule: Q04DX002 (ip), vehicle: Klucel (hydroxypropylcellulose) (HPC) 94 % of control | dose: 400.0 mg/kg/injection, schedule: Q04DX002 (ip), vehicle: Klucel (hydroxypropylcellulose) (HPC) 97 % of control

O=[N+]([O-])c1ccc(Nc2ccccc2)nc1
inactive: [9] 106 % of control | [4] 106 % of control | [5] 101 % of control | [6] 106 % of control

COP(=O)(O)CC(C)=O (tested in a mixture with another compound)
inactive: [7] 101 % of control | [8] 101 % of control | dose: 400.0 mg/kg/injection, schedule: Q04DX002 (ip), vehicle: saline 101 % of control

CC(=O)N/N=C(/C)C(=O)O
inactive: dose: 50.0 mg/kg/injection, schedule: Q01DX009 (ip), vehicle: water 100 % of control | dose: 100.0 mg/kg/injection, schedule: Q01DX009 (ip), vehicle: water 100 % of control | dose: 100.0 mg/kg/injection, schedule: Q04DX003 (ip), vehicle: water 97 % of control | dose: 200.0 mg/kg/injection, schedule: Q04DX003 (ip), vehicle: water 106 % of control

N#CCSc1ncnc2nc[nH]c12
inactive: dose: 15.0 mg/kg/injection, schedule: Q01DX010 (ip), vehicle: saline 94 % of control and 116 % of control | dose: 30.0 mg/kg/injection, schedule: Q01DX010 (ip), vehicle: saline 97 % of control and 110 % of control | [9] 107 % of control | dose: 60.0 mg/kg/injection, schedule: Q01DX010 (ip), vehicle: saline 118 % of control and 121 % of control | dose: 62.5 mg/kg/injection, schedule: Q01DX Z (ip), vehicle: carboxymethylcellulose (CMC) 109 % of control | dose: 76.0 mg/kg/injection, schedule: Q01DX001 (ip), vehicle: carboxymethylcellulose (CMC) 110 % of control | dose: 114.0 mg/kg/injection, schedule: Q01DX001 (ip), vehicle: carboxymethylcellulose (CMC) 107 % of control | dose: 171.0 mg/kg/injection, schedule: Q01DX001 (ip), vehicle: carboxymethylcellulose (CMC) 113 % of control | dose: 256.5 mg/kg/injection, schedule: Q01DX001 (ip), vehicle: carboxymethylcellulose (CMC) 123 % of control

O=C(O)Cc1ccc2[nH]c3c(c2c1)CCCC3
inactive: [1] 105 % of control | dose: 100.0 mg/kg/injection, schedule: Q01DX001 (ip), vehicle: steriod suspending solution 95 % of control | [2] 103 % of control | dose: 200.0 mg/kg/injection, schedule: Q01DX001 (ip), vehicle: steriod suspending solution 92 % of control | [3] 97 % of control

CC1(C)N=C(N)N=C(N)N1NC(=O)c1ccc(Cl)cc1
inactive: dose: 100.0 mg/kg/injection, schedule: Q04DX003 (ip), vehicle: saline with Tween-80 100 % of control | dose: 200.0 mg/kg/injection, schedule: Q04DX003 (ip), vehicle: saline with Tween-80 103 % of control
